{
  "source": "patent US8841317B2",
  "about": "(Emory University, priority 2010, dated 2014)",
  "key": {"[1]": {"tested_on": "HEK293 cells transfected with TLR2 alone or TLR2/6 receptors", "test": "Pam3CSK4-induced IL-8 release (ELISA)", "type": "cell-based, human", "conditions": "no drug = 1400 pg/ml", "experimental": "(§1) TLR ligand concentrations ranging from (LPS: 10-0.31 picomolar (pM) and Pam3CSK4: 10-0.31 μg/ml) and non-TLR ligands (mouse IP-10 and TNFα: 1000-31 pg/ml) were made in duplicate wells using sterile PBS by serial fold dilutions in the 96-well tissue culture plates at 50 μl final volumes. Freshly grown THP-1cells, RAW264.7, ScCr, HEK-TLR2/6 and HEK-TLR4-MD2-CD14 transfected cells each adjusted to 10^6 cell/ml and 250 μl aliquots were dispensed into each well at a final cell density of 250×10^3 in the designated 96-well plates. The plates were then incubated overnight at 37° C. with 5% CO2 and humidity. Supernatants from stimulated cells were harvested and stored at −20° C. until further use.\n(§2) Released cytokines TNFα and IL-6 and chemokines CXCL10 (IP-10), MIP-2α and IL-8 were quantified by DuoSet ELISA (R&D Systems, Minneapolis, Minn.) following the manufacturer's instructions as previously described [Zughaier S M, Zimmer S M, Datta A, Carlson R W, Stephens D S (2005) Differential induction of the toll-like receptor 4-MyD88-dependent and -independent signaling pathways by endotoxins. Infect Immun 73: 2940-2950.]."}, "THP-1 cells [2]": {"tested_on": "THP-1 cells", "test": "LDH release into supernatant", "type": "cell-based, human", "conditions": "THP-1 cells incubated 48 hr with 50 μM; DMSO control 5 IU/L", "experimental": "(§3) Biochim Biophys Acta 887: 13-22.]. […] Cellular aliquots (100 μl) were taken daily and cells were diluted 1:1 with the vital dye trypan blue 0.4% solution (Cellgro, Mediatech Inc, Herndon, Va.) in PBS and viable cells were counted. LDH release into the supernatant was also measured to assess the toxicity of the drugs. […] Cell Microbiol 7: 1251-1262.]."}, "[3]": {"tested_on": "RAW 264.7 murine macrophages", "test": "Nitric oxide release from TLR ligand-stimulated murine macrophages (Griess method)", "type": "cell-based", "conditions": "TLR ligands LPS or Pam3CSK4", "experimental": "as §1\n(§4) Freshly grown adherent RAW 246.7 or 23ScCr (TLR4-deficient) macrophages were scraped by a cell scraper. Harvested cells were washed and re-suspended in Dulbecco's complete media, counted and adjusted to 10^6 cell/ml. […] aliquots were then dispensed into each well at final 250×10^3 cell density in the designated 96-well plates prior to stimulation with TLR ligands or recombinant cytokines as mentioned above. […] Nitric oxide release was quantified using the Griess chemical method as previously described [Zughaier S M, Tzeng Y L, Zimmer S M, Datta A, Carlson R W, et al. (2004) Neisseria meningitidis lipooligosaccharide structure-dependent activation of the macrophage CD14/Toll-like receptor 4 pathway. […]"}, "[4]": {"conditions": "doses as high as 300 mg/kg; cited from earlier work"}, "[5]": {"tested_on": "human or murine macrophages", "test": "Cellular viability (trypan blue exclusion, morphology, LDH)", "type": "cell-based, human and murine", "experimental": "as §3"}, "THP-1 human macrophages": {"tested_on": "THP-1 human macrophages", "test": "TNFα release from TLR ligand-stimulated human macrophages (ELISA)", "type": "cell-based", "conditions": "human and murine macrophages; TLR ligands LPS or Pam3CSK4", "experimental": "as §1, §2"}, "THP-1 macrophages": {"tested_on": "THP-1 macrophages", "test": "Respiratory burst ROS release (lucigenin chemiluminescence)", "type": "cell-based, human", "experimental": "The enhanced chemiluminescence method was used as previously described [Zughaier S M, Ryley H C, Jackson S K (1999) A melanin pigment purified from an epidemic strain of Burkholderia cepacia attenuates monocyte respiratory burst activity by scavenging superoxide anion. Infect Immun 67: 908-913.]. Briefly, freshly grown THP-1 cells were adjusted to 2×10^6/ml, transferred to two large tissue culture flasks labeled as primed or unstimulated. Two pmole/ml LPS were added to prime cells or left unstimulated as control cells. Both flasks were incubated overnight at 37° C. under 5% CO2. […] The cells were collected in universal tubes, washed twice with culture medium and resuspended in standard buffer (4.58 mM KH2PO4, 8.03 mM NaHPO4, 0.5 mM MgCl2, 0.45 mM CaCl2, 1% (w/v) glucose, 0.033% (w/v) KCl, 0.76% (w/v) NaCl and 0.1% (w/v) endotoxin-free bovine serum albumin (pH 7.3) at 2×10^6/ml. The chemiluminescence probe lucigenin (Sigma) was added to the cell suspension (25 μl/ml of cells from 1.0 mM stock solution) and mixed gently. Aliquots (150 μl) of the cellular mixture were transferred into at least quadruplicate wells of a white 96-well plate (FluoroNunc-PolySorp; Nalge Nunc International, Rochester, N.Y.). The respiratory burst was triggered with 50 μl of PMA (1 μM). Chemiluminescence was measured in relative light units (a measure of the number of photons generated by the reaction at each time point). Chemiluminescence was measured using a luminometer (ML3000, Dynatech Laboratories Inc. Chantilly, Va.) and the plate was read immediately and then at 2 min intervals for the next 90 min [Zughaier S M, Ryley H C, Jackson S K (1999) A melanin pigment purified from an epidemic strain of Burkholderia cepacia attenuates monocyte respiratory burst activity by scavenging superoxide anion. Infect Immun 67: 908-9131."}, "[6]": {"tested_on": "ScCr (TLR4-deficient) cells", "test": "Sterile inflammation: nitric oxide release after murine TNFα stimulation", "type": "cell-based", "conditions": "50 μM for 1 hr or overnight, then murine TNFα 1000-31.2 pg/ml", "experimental": "as §1, §4"}, "[7]": {"tested_on": "RAW264 (TLR4-sufficient) cells", "test": "Sterile inflammation: nitric oxide release after murine IP-10 (CXCL10) stimulation", "type": "cell-based", "conditions": "50 μM for 1 hr or overnight, then murine IP-10 1000-31.2 pg/ml", "experimental": "as §1, §4"}, "THP-1 cells [8]": {"tested_on": "THP-1 cells", "test": "Detection of acidic vesicular organelles (acridine orange)", "type": "cell-based, human", "conditions": "24 hr treatment, acridine orange 1 μg/ml", "experimental": "THP-1 cells were plated on cover slips and allowed to attach. Following treatments for 24 hr with DMSO alone (control), Red-Br-nos, LPS, Red-Br-nos and LPS, cells were stained with 1 μg/ml acridine orange for 15 min, washed with PBS, and examined under a Zeiss fluorescence microscope using a 40× objective lens [Herman-Antosiewicz A, Johnson D E, Singh S V (2006) Sulforaphane causes autophagy to inhibit release of cytochrome C and apoptosis in human prostate cancer cells. Cancer Res 66: 5828-5835.]."}, "[9]": {"tested_on": "human macrophage cells THP-1", "test": "Autophagy by electron microscopy", "type": "cell-based", "conditions": "overnight, LPS 2 pM plus drug 50 μM", "experimental": "Human macrophage cells were fixed for 1 hr with 2% glutaraldehyde in 0.1M sodium cacodylate buffer, rinsed in the same buffer and the post-fixed with 2% osmium tetroxide in the same buffer for 1 hr at room temperature. The samples were then dehydrated with a graded ethanol series through 3×100%, 2× in propylene oxide and embedded in Spurr's resin. Sections were stained with 1% uranyl acetate and lead citrate. Electron microscopy imaging was then performed at a magnification of 3597×."}},
  "note": "“Also recorded” adds a separate entry of the source. Where two headings read alike, the source gives them in different places.",
  "data": [
    {"compound": "COc1ccc2c(c1OC)C(=O)O[C@@H]2[C@H]1c2c(c(Br)c3c(c2OC)OCO3)CCN1C", "note": "[Br-nos, (S)-3-((R)-9-bromo-4-methoxy-6-methyl-5,6,7,8-tetrahydro-[1,3]dioxolo[4,5-g]isoquinolin-5-yl)-6,7-dimethoxyiso-benzofuran-1(3H)-one]", "values": [
      {"measurement": "IL-8 release", "setting": "[1]", "result": 650, "unit": "pg/mL"},
      {"measurement": "LDH release", "setting": "THP-1 cells [2]", "result": 8, "unit": "IU/L"},
      {"measurement": "TLR-mediated nitric oxide (NO) release", "setting": "[3]", "result": "dampened"},
      {"measurement": "toxicity", "setting": "[4]", "result": "non-toxic"},
      {"measurement": "cellular toxicity / viability", "setting": "[5]; human and murine macrophages", "result": "without evidence of cellular toxicity"},
      {"measurement": "TLR-mediated TNFα release", "setting": "THP-1 human macrophages", "result": "dampened"}
    ]},
    {"compound": "COc1ccc2c(c1OC)C(=O)O[C@@H]2[C@H]1c2c(cc3c(c2OC)OCO3)CCN1C", "note": "[noscapine, (S)-6,7-dimethoxy-3-((R)-4-methoxy-6-methyl-5,6,7,8-tetrahydro[1,3]-dioxolo-[4,5-g]isoquinolin-5-yl)isobenzo-furan-1(3H)-one]", "values": [
      {"measurement": "ROS release, LPS primed cells", "setting": "THP-1 macrophages; 50 μM added just prior to PMA-triggered respiratory burst", "result": "enhanced ROS release"},
      {"measurement": "ROS release, unprimed macrophages", "setting": "THP-1 macrophages; 50 μM added just prior to respiratory burst", "result": "not in unprimed macrophages"},
      {"measurement": "ROS release, primed macrophages", "setting": "THP-1 macrophages; added 2 hr prior to triggering the respiratory burst", "result": "no change in ROS release"},
      {"measurement": "LDH release", "setting": "THP-1 cells [2]", "result": 7, "unit": "IU/L"},
      {"measurement": "nitric oxide release versus no drug", "setting": "[6]", "result": "not significant"},
      {"measurement": "nitric oxide release versus no drug", "setting": "[7]", "result": "not significant"},
      {"measurement": "cellular toxicity / viability", "setting": "[5]; human and murine macrophages", "result": "did not induce inflammatory responses or impair cellular viability"}
    ]},
    {"compound": "COc1ccc2c(c1OC)CO[C@@H]2[C@H]1c2c(c(Br)c3c(c2OC)OCO3)CCN1C", "note": "[Red-Br-nos, (R)-9-bromo-5-((S)-4,5-dimethoxy-1,3-dihydroisobenzofuran-1-yl)-4-methoxy-6-methyl-5,6,7,8-tetrahydro-[1,3]di-oxolo-[4,5-g]isoquinoline]", "values": [
      {"measurement": "IL-8 release", "setting": "[1]", "result": 400, "unit": "pg/mL"},
      {"measurement": "acidic vesicular organelles (AVOs)", "setting": "THP-1 cells [8]", "result": "confirmed the drug-induced autophagic activity; also recorded: formation (red fluorescence) of acridine orange-accumulating acidic vesicular organelles (AVOs)"},
      {"measurement": "LDH release", "setting": "THP-1 cells [2]", "result": 10, "unit": "IU/L"},
      {"measurement": "TLR-mediated nitric oxide (NO) release", "setting": "[3]", "result": "dampened"},
      {"measurement": "toxicity", "setting": "[4]", "result": "non-toxic"},
      {"measurement": "autophagy-related vacuolation (electron micrographs)", "setting": "[9]", "result": "increased vacuolation in the cytoplasm"},
      {"measurement": "cellular toxicity / viability", "setting": "[5]", "result": "without evidence of cellular toxicity"},
      {"measurement": "TLR-mediated TNFα release", "setting": "THP-1 human macrophages", "result": "dampened"}
    ]}
  ]
}
